According to ChEMBL document CHEMBL1201862, “PubChem BioAssay data set” (2004):
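1) Cells in 96-well plates. 2) Compound, 48 h, 5 concentrations. 3) Linear interpolation between surrounding doses. 4) Unreached endpoint = highest concentration. Abbreviation: GI50, concentration required for 50% inhibition of growth.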 Active and inactive are the calls of the source. Rule as the data show it: active = GI50 up to about 1.1 µM and inactive = higher.

Assays:
Test in all cases: growth of human tumour cells (NCI), 48 h
A549 = test system: A549
BT-549 = test system: BT-549
CAKI-1 = test system: CAKI-1
EKVX = test system: EKVX
HCT-116 = test system: HCT-116
K562 = test system: K562
LOX IMVI = test system: LOX IMVI
M14 = test system: M14
MOLT-4 = test system: MOLT-4
NCI-H23 = test system: NCI-H23
OVCAR-3 = test system: OVCAR-3
OVCAR-4 = test system: OVCAR-4
OVCAR-5 = test system: OVCAR-5
SF-268 = test system: SF-268
SF-295 = test system: SF-295
SNB-75 = test system: SNB-75
SR = test system: SR
TK-10 = test system: TK-10
UACC-62 = test system: UACC-62
MDA-N = test system: MDA-N

| SMILES | GI50 (A549) | GI50 (BT-549) | GI50 (CAKI-1) | GI50 (EKVX) | GI50 (HCT-116) | GI50 (K562) | GI50 (LOX IMVI) | GI50 (M14) | GI50 (MOLT-4) | GI50 (NCI-H23) | GI50 (OVCAR-3) | GI50 (OVCAR-4) | GI50 (OVCAR-5) | GI50 (SF-268) | GI50 (SF-295) | GI50 (SNB-75) | GI50 (SR) | GI50 (TK-10) | GI50 (UACC-62) | GI50 (MDA-N) |
| --- | --- | --- | --- | --- | --- | --- | --- | --- | --- | --- | --- | --- | --- | --- | --- | --- | --- | --- | --- | --- |
| O=C1CN2C(c3ccccc3)=NN(c3ccc([N+](=O)[O-])cc3)C2(c2ccccc2)c2cc(Cl)ccc2N1CC1CC1 (stereo not given) | > 100 µM (inactive) | > 100 µM (inactive) | > 100 µM (inactive) | > 100 µM (inactive) | > 100 µM (inactive) | > 100 µM (inactive) | > 100 µM (inactive) | > 100 µM (inactive) | 79.4 µM (inactive) | > 100 µM (inactive) | > 100 µM (inactive) | > 100 µM (inactive) | > 100 µM (inactive) | > 100 µM (inactive) | > 100 µM (inactive) | > 100 µM (inactive) | > 100 µM (inactive) | > 100 µM (inactive) | > 100 µM (inactive) | – |
| Cn1c2c(c3ccccc31)CC(=S)N1CCCC(CC2O)C1 (stereo not given) | > 100 µM (inactive) | > 100 µM (inactive) | > 100 µM (inactive) | – | > 100 µM (inactive) | > 100 µM (inactive) | > 100 µM (inactive) | – | – | > 100 µM (inactive) | – | > 100 µM (inactive) | – | > 100 µM (inactive) | > 100 µM (inactive) | > 100 µM (inactive) | – | > 100 µM (inactive) | 91.2 µM (inactive) | > 100 µM (inactive) |
| Cc1nc2nc3c(ncn3COCCO)c(O)n2c1C(c1ccccc1)(c1ccccc1)c1ccccc1 | 18.5 µM (inactive) | 0.6 µM (active) | 60 µM (inactive) | 19.4 µM (inactive) | 15.1 µM (inactive) | 9.25 µM (inactive) | 13.1 µM (inactive) | 16.3 µM (inactive) | 8.2 µM (inactive) | 4.63 µM (inactive) | 2.96 µM (inactive) | 13.6 µM (inactive) | 18.7 µM (inactive) | 16 µM (inactive) | 17.3 µM (inactive) | 12.8 µM (inactive) | – | 16.6 µM (inactive) | 11.4 µM (inactive) | 13.5 µM (inactive) |
| COc1cccc(/C=C/c2ccnc3ccccc23)c1OC | > 10 µM (inactive) | > 10 µM (inactive) | > 10 µM (inactive) | 9.66 µM (inactive) | > 10 µM (inactive) | 4.7 µM (inactive) | 4.79 µM (inactive) | > 10 µM (inactive) | 3.89 µM (inactive) | 9.66 µM (inactive) | 7.78 µM (inactive) | > 10 µM (inactive) | > 10 µM (inactive) | > 10 µM (inactive) | > 10 µM (inactive) | > 10 µM (inactive) | – | > 10 µM (inactive) | > 10 µM (inactive) | 4.94 µM (inactive) |
| CCOC(=O)c1cc2c(OCc3ccccc3)c(OC)cc3c2c(n1)N(c1ccc(OC)cc1)C(C)C3 (stereo not given) | > 50 µM (inactive) | – | 23.2 µM (inactive) | > 50 µM (inactive) | > 50 µM (inactive) | > 50 µM (inactive) | > 50 µM (inactive) | > 50 µM (inactive) | > 50 µM (inactive) | > 50 µM (inactive) | 23.2 µM (inactive) | 10.4 µM (inactive) | > 50 µM (inactive) | > 50 µM (inactive) | > 50 µM (inactive) | > 50 µM (inactive) | > 50 µM (inactive) | > 50 µM (inactive) | 49.3 µM (inactive) | – |
| C/C=C1\CNC1C(=O)O (stereo not given) | > 100 µM (inactive) | > 100 µM (inactive) | > 100 µM (inactive) | > 100 µM (inactive) | > 100 µM (inactive) | > 100 µM (inactive) | > 100 µM (inactive) | – | – | > 100 µM (inactive) | > 100 µM (inactive) | > 100 µM (inactive) | > 100 µM (inactive) | > 100 µM (inactive) | > 100 µM (inactive) | – | – | > 100 µM (inactive) | > 100 µM (inactive) | > 100 µM (inactive) |
| C=C(C)[C@H]1CC[C@@]23O[C@@H]2[C@@H](C[C@@]2(C)CC(=O)[C@H](CC(=O)C1)O2)OC(=O)[C@@]12CC[C@H](C(=C)C)CC(=O)C[C@H]4O[C@](C)(CC4=O)C[C@@H](OC3=O)[C@@H]1O2 [SINGARDIN] | > 100 µM (inactive) | – | > 100 µM (inactive) | > 100 µM (inactive) | > 100 µM (inactive) | > 100 µM (inactive) | > 100 µM (inactive) | > 100 µM (inactive) | > 100 µM (inactive) | > 100 µM (inactive) | > 100 µM (inactive) | > 100 µM (inactive) | > 100 µM (inactive) | – | > 100 µM (inactive) | > 100 µM (inactive) | – | > 100 µM (inactive) | > 100 µM (inactive) | > 100 µM (inactive) |
| CCC[C@H]1O[C@@H]2CC(=O)O[C@@H]2C2=C1C(=O)C=CC2=O | 32.6 µM (inactive) | – | 19.2 µM (inactive) | > 44.1 µM (inactive) | 18 µM (inactive) | 5.09 µM (inactive) | 21 µM (inactive) | 18.7 µM (inactive) | 3.32 µM (inactive) | 13.6 µM (inactive) | 14.1 µM (inactive) | 16.3 µM (inactive) | 19.7 µM (inactive) | 12.9 µM (inactive) | 25.4 µM (inactive) | 17 µM (inactive) | 16.7 µM (inactive) | > 42.8 µM (inactive) | 17.9 µM (inactive) | – |
| COP(=O)(O)/C=C/C(NC(=O)C(Cl)(Cl)Cl)c1ccccc1 (stereo not given) | > 100 µM (inactive) | > 100 µM (inactive) | > 100 µM (inactive) | > 100 µM (inactive) | > 100 µM (inactive) | > 100 µM (inactive) | > 100 µM (inactive) | > 100 µM (inactive) | > 100 µM (inactive) | > 100 µM (inactive) | > 100 µM (inactive) | > 100 µM (inactive) | > 100 µM (inactive) | > 100 µM (inactive) | > 100 µM (inactive) | > 100 µM (inactive) | – | > 100 µM (inactive) | > 100 µM (inactive) | > 100 µM (inactive) |
| C=CCCCN1C(=O)C2C3c4ccccc4C(C=O)(c4ccccc43)C2C1=O (stereo not given) | 15.2 µM (inactive) | – | 16 µM (inactive) | 6.03 µM (inactive) | 3.13 µM (inactive) | 3.62 µM (inactive) | 6.07 µM (inactive) | – | 4.57 µM (inactive) | 12.4 µM (inactive) | 9.02 µM (inactive) | 11.4 µM (inactive) | 18.9 µM (inactive) | 14.5 µM (inactive) | 9.91 µM (inactive) | – | 4.79 µM (inactive) | 16.1 µM (inactive) | 9.42 µM (inactive) | 13.6 µM (inactive) |
| Cn1c2ccccc2n2c(=O)c3cccnc3c(C#N)c12 | – | 17.5 µM (inactive) | > 100 µM (inactive) | > 100 µM (inactive) | 94.2 µM (inactive) | – | 39.1 µM (inactive) | – | 7.45 µM (inactive) | 33.3 µM (inactive) | > 100 µM (inactive) | > 100 µM (inactive) | > 100 µM (inactive) | > 100 µM (inactive) | > 100 µM (inactive) | > 100 µM (inactive) | – | > 100 µM (inactive) | – | > 100 µM (inactive) |
| CC1(C)[N+]([O-])=[N+]([O-])C1(Br)c1ccccc1 (stereo not given) | > 100 µM (inactive) | – | > 100 µM (inactive) | > 100 µM (inactive) | > 100 µM (inactive) | 85.7 µM (inactive) | 48.1 µM (inactive) | > 100 µM (inactive) | 45.4 µM (inactive) | 80.9 µM (inactive) | 39.2 µM (inactive) | 82.2 µM (inactive) | > 100 µM (inactive) | 65.3 µM (inactive) | 49.2 µM (inactive) | > 100 µM (inactive) | 43.5 µM (inactive) | > 100 µM (inactive) | > 100 µM (inactive) | > 100 µM (inactive) |
| Cn1c2ccccc2n2c3ncccc3c(=O)cc12 | 20.2 µM (inactive) | 65.8 µM (inactive) | 36.2 µM (inactive) | 16.3 µM (inactive) | 15 µM (inactive) | 78.3 µM (inactive) | 29.9 µM (inactive) | 64.3 µM (inactive) | 36.9 µM (inactive) | 43 µM (inactive) | 50.2 µM (inactive) | > 100 µM (inactive) | > 100 µM (inactive) | 64.4 µM (inactive) | 45.1 µM (inactive) | 44.1 µM (inactive) | – | 74.6 µM (inactive) | – | 54.8 µM (inactive) |
| CC(C)C(C(=O)O)N1C(=O)c2ccccc2C1=O (stereo not given) | > 100 µM (inactive) | > 100 µM (inactive) | > 100 µM (inactive) | > 100 µM (inactive) | > 100 µM (inactive) | > 100 µM (inactive) | > 100 µM (inactive) | > 100 µM (inactive) | > 100 µM (inactive) | > 100 µM (inactive) | > 100 µM (inactive) | > 100 µM (inactive) | > 100 µM (inactive) | > 100 µM (inactive) | > 100 µM (inactive) | > 100 µM (inactive) | – | > 100 µM (inactive) | > 100 µM (inactive) | > 100 µM (inactive) |
| CC(=O)C1Cn2c(nc3ccccc32)C[Se]1 (stereo not given) | 19.8 µM (inactive) | – | 2.19 µM (inactive) | 15 µM (inactive) | 2.2 µM (inactive) | 4.23 µM (inactive) | 4.29 µM (inactive) | 2.3 µM (inactive) | 2.29 µM (inactive) | 2.75 µM (inactive) | 2.22 µM (inactive) | 3.44 µM (inactive) | 3.05 µM (inactive) | 3.85 µM (inactive) | 3.26 µM (inactive) | 2.55 µM (inactive) | 3.1 µM (inactive) | 4.41 µM (inactive) | 1.97 µM (inactive) | – |
